In US5470858A, “Derivatives of (hetero)aromatic ethers and thioethers having antihyperlipidemic activity, process for their preparation and pharmaceutical compositions containing them” (Pierrel SpA, priority 1991, dated 1995):
Where two headings read alike, the source gives them in different places.

Experiments:
Assay type in all cases: in vivo
[1] = tested on: hyperlipaemic SD male rats; assay: Hypolipemizing activity, 15 days experimental model, modified diet; details: rat, oral; for Cholesterol VLDL + LDL (percent variation vs hyperlipaemic controls): by difference between total and HDL; for Hepatic index (percent variation vs hyperlipaemic controls): index = (Liver weight/body weight) × 100
Experimental: (§1) The hypolipemizing activity of the compounds of the present invention has been evaluated in the rat using SD male animals (Charles River) of an initial weight of 150 g, housed in controlled environment at a temperature of 21°±1° C., relative humidity 60% and a 12 hours light/dark cycle.
Experimental models have been used in which the animals are rendered hiperlipaemic by "ad libitum" food administration with a modified Nath diet (Atherosclerosis 30, 1978, pag. 45-46) having the following composition:
In the second model a diet was used which was modified with respect to the former one by the following parameters: […]
The animals were fasted with this diet for 15 days consecutively, during which they received the pharmacological treatment once a day by oral route and were sacrificed 24 hours after the last administration. At the sacrifice time the blood was removed for the lipid determination and the liver was removed as well to be weighed and used for the evaluation of the catalase enzyme as the index of the peroxysomes proliferation and thus of hepatotoxicity.
This experimental model has been used only for the molecules which in the first model were found more promising, and has permitted to get values of the serum lipids from 2 to 3 times higher than the normal values both for the total cholesterol and for the triglycerides.
This experimental model was used to:
a) evaluate the effectiveness on a less marked hyperlipoproteinaemy, and
b) assess mainly at the hepatic level the tolerability of the compounds during a more extended treatment.
(§2) The determination of the triglycerides, of the total cholesterol and of the cholesterol associated to the HDL has been effected by means of a commercial enzymatic kit. The concentration of the cholesterol associated to VLDL+LDL has been determined by difference between total cholesterol and HDL.
On the basis of the indications provided by this screening the most interesting compounds have been evaluated by the 15 days experimental model which permits both the evaluation of the effectiveness in the case of a hyperlipaemia less marked and more constant, and the tolerability control of the compounds during a longer term treatment.
In this case too the results (reported in the following table 2) are expressed as the percent variation with respect to the hyperlipaemic controls to which carboxymethylcellulose as 0.5% in water was administered by oral route at the dose of 10 ml/kg/day. The same vehicle was used for the suspension of the compounds being tested, administered at the doses; of 50 and 100 mg/kg/day by oral route.

[2] = tested on: liver; assay: Hepatic tolerability, 15 days at high dose: hepatic index; details: rat, oral, 15 days, 300 mg/kg/day; absolute values; solvent 5,4
Experimental: (§3) The hypolipemizing activity of the compounds of the present invention has been evaluated in the rat using SD male animals (Charles River) of an initial weight of 150 g, housed in controlled environment at a temperature of 21°±1° C., relative humidity 60% and a 12 hours light/dark cycle. The animals were fasted with this diet for 15 days consecutively, during which they received the pharmacological treatment once a day by oral route and were sacrificed 24 hours after the last administration. At the sacrifice time the blood was removed for the lipid determination and the liver was removed as well to be weighed and used for the evaluation of the catalase enzyme as the index of the peroxysomes proliferation and thus of hepatotoxicity. In order to evaluate the hepatic tolerability of the compounds of interest they have been administered for 15 days at a high dose (300 mg/kg/day) according to the same conditions of the previous experiment.24 hours after the last treatment the animals have been sacrificed, and the liver has been removed and stored at -20° C. up to the time of dosing the activity of the catalase enzyme (Methods of enzymatic analysis, vol.2, pag. 673, 1974 edit. H. U. Bergmeyer, Verlag Chemie International).

[3] = tested on: hyperlipaemic SD male rats; assay: Hypolipemizing activity, 5 days experimental model, modified Nath diet; details: rat, oral; for change in vivo at 100 mg/kg/day / change in vivo at 300 mg/kg/day: 120 h; for Hepatic index (percent variation vs hyperlipaemic controls): index = (Liver weight/body weight) × 100
Experimental: as §1
Experimental models have been used in which the animals are rendered hiperlipaemic by "ad libitum" food administration with a modified Nath diet (Atherosclerosis 30, 1978, pag. 45-46) having the following composition: […]
hydrogenated coconut oil
In the first model the animals have been fed with this diet for 5 consecutive days, during which they received the pharmacological treatment once a day by oral route and were sacrificed 2 hours after the last administration.
At the time of the sacrifice the blood was removed, for the lipid determination, as well as the liver the weight of which was the index of a possible hepatomegaly.
By this experimental model the concentration of the serum lipids attained very high values which, in the control group, was four times the normal values for the total cholesterol and the triglycerides.
as §2
The results obtained in the experimental model of the 5 days duration for some compounds representative of the invention are reported in the following table 1. The data are expressed as percent variation with respect to the hyperlipaemic controls to which carboxymethylcellulose as 0.5% in water at the dose of 10 ml/kg/day by oral route was administered. The same vehicle was used for the suspension of the tested compounds at the doses of 100 and 300 mg/kg/day by oral route.

[4] = tested on: catalase enzyme; assay: Hepatic tolerability, 15 days at high dose: catalase enzyme activity in liver (index of peroxysomes proliferation); details: rat liver, oral, 15 days, 300 mg/kg/day; absolute values; solvent 539,8
Experimental: as §3

[5] = 100 mg/kg/day, by difference between total and HDL, read-out: Cholesterol VLDL + LDL (percent variation vs hyperlipaemic controls)
[6] = 100 mg/kg/day, read-out: Cholesterol HDL (percent variation vs hyperlipaemic controls)
[7] = 100 mg/kg/day, read-out: Total Cholesterol (percent variation vs hyperlipaemic controls)
[8] = 100 mg/kg/day, read-out: Triglycerides (percent variation vs hyperlipaemic controls)
[9] = 300 mg/kg/day, by difference between total and HDL, read-out: Cholesterol VLDL + LDL (percent variation vs hyperlipaemic controls)
[10] = 300 mg/kg/day, read-out: Cholesterol HDL (percent variation vs hyperlipaemic controls)
[11] = 300 mg/kg/day, read-out: Total Cholesterol (percent variation vs hyperlipaemic controls)
[12] = 300 mg/kg/day, read-out: Triglycerides (percent variation vs hyperlipaemic controls)

| Compound | Cholesterol HDL (percent variation vs hyperlipaemic controls) ([1]; 50 mg/kg/day) | Total Cholesterol (percent variation vs hyperlipaemic controls) ([1]; 50 mg/kg/day) | Triglycerides (percent variation vs hyperlipaemic controls) ([1]; 50 mg/kg/day) | Cholesterol VLDL + LDL (percent variation vs hyperlipaemic controls) ([1]; 50 mg/kg/day) | Hepatic index (percent variation vs hyperlipaemic controls) ([1]; 50 mg/kg/day) | Cholesterol HDL (percent variation vs hyperlipaemic controls) ([1]; 100 mg/kg/day) | Total Cholesterol (percent variation vs hyperlipaemic controls) ([1]; 100 mg/kg/day) | Triglycerides (percent variation vs hyperlipaemic controls) ([1]; 100 mg/kg/day) | Cholesterol VLDL + LDL (percent variation vs hyperlipaemic controls) ([1]; 100 mg/kg/day) | Hepatic index (percent variation vs hyperlipaemic controls) ([1]; 100 mg/kg/day) | Hepatic index (Liver weight/body weight) × 100 [2] | change in vivo at 100 mg/kg/day [3, 5] [%] | change in vivo at 100 mg/kg/day [3, 6] [%] | change in vivo at 100 mg/kg/day [3, 7] [%] | change in vivo at 100 mg/kg/day [3, 8] [%] | change in vivo at 300 mg/kg/day [3, 9] [%] | change in vivo at 300 mg/kg/day [3, 11] [%] | change in vivo at 300 mg/kg/day [3, 12] [%] | Hepatic index (percent variation vs hyperlipaemic controls) ([3]; 300 mg/kg/day) | Catalase enzyme activity [4] | also measured |
| --- | --- | --- | --- | --- | --- | --- | --- | --- | --- | --- | --- | --- | --- | --- | --- | --- | --- | --- | --- | --- | --- |
| CC(C)COC(=O)c1ccc(OCC(O)CSc2nc3ccccc3o2)cc1 (stereo not drawn) [Example 11] | -9,9% | -36,6% | -48,5% | -39,7% | +0,2% | +16,1% | -34,4% | -46,8% | -40,2% | -3,1% | 5,8 | -22.8 | 9.5 | -21.4 | -21.6 | -39.7 | -37.1 | -30.3 | -1,7% | 444,7 umoli/min/mg proteins | change in vivo at 300 mg/kg/day [3, 10]: 14.9%; Hepatic index (percent variation vs hyperlipaemic controls) ([3]; 100 mg/kg/day): -2,3% |
| CC(C)COC(=O)c1ccc(OCC(=O)CSc2nc3ccccc3s2)cc1 [Example 2, 2-[3-[(p-isobutyloxycarbonyl)phenoxy]-2-oxo-propylthio]-benzothiazole] | -24,5% | -13,1% | -0,2% | -12,0% | +3,5% | -0,4% | -12,9% | -18,7% | -14,0% | -4,5% | 6,0 | -14.7 | 10.4 | -13.2 | -22.1 | -21.8 | -19.5 | -32.5 | -1,6% | 603,0 umoli/min/mg proteins | change in vivo at 300 mg/kg/day [3, 10]: 13.9%; Hepatic index (percent variation vs hyperlipaemic controls) ([3]; 100 mg/kg/day): -6,5% |
| CC(C)COC(=O)c1ccc(OCC(=O)CSc2nc3c(N)ncnc3n2[C@@H]2O[C@H](CO)[C@@H](O)[C@H]2O)cc1 [Example 28] | +11,3% | -23,3% | -27,3% | -28,1% | +0,6% | +21,0% | -35,3% | -35,1% | -41,7% | -1,9% | 5,6 | -15.1 | 5.7 | -14 | -16.3 | -33.7 | -31.3 | -22.5 | -5,5% | 479,7 umoli/min/mg proteins | change in vivo at 300 mg/kg/day [3, 10]: 22.7% |
| CC(C)COC(=O)c1ccc(OCC(O)CSc2nc3ccccc3s2)cc1 (stereo not drawn) [Example 6, 2-[3-[(p-isobutyloxycarbonyl)-phenoxy]-2-hydroxy-propylthio]-benzothiazole] | +1,0% | -16,1% | -18,2% | -19,0% | -1,7% | +4,3% | -19,0% | -49,1% | -21,7% | -4,1% | 5,9 | -18.8 | 7.7 | -17 | -15.6 | -27.9 | -24.9 | -23.4 | +0,4% | 504,6 umoli/min/mg proteins | Hepatic index (percent variation vs hyperlipaemic controls) ([3]; 100 mg/kg/day): +2,2% |
| CC(C)COC(=O)c1ccc(OCC(CSc2nc3c(N)ncnc3n2[C@@H]2O[C@H](CO)[C@@H](O)[C@H]2O)=NNC(N)=O)cc1 [Example 33] | +15,6% | -29,7% | -20,5% | -34,7% | +2,2% | +19,4% | -33,8% | -30,6% | -39,7% | +3,9% | 5,3 | -37.4 | 22.2 | -34.8 | -27.8 | -46.9 | -44.1 | -43 | -2,5% | 378,5 umoli/min/mg proteins | change in vivo at 300 mg/kg/day [3, 10]: 16.6%; Hepatic index (percent variation vs hyperlipaemic controls) ([3]; 100 mg/kg/day): -1,6% |
